Source: patent US20050234066A1, “Alpha substituted carboxylic acids” (Agouron Pharmaceuticals, Inc., priority 2004, published 2005)
Like-named read-outs stand apart in the source and are kept apart here.

Key:
PPAR-γ = target: T1, PPAR-γ (Homo sapiens, UniProt P37231); assay: Scintillation Proximity Assay (SPA), displacement of 3H labeled darglitazone; type: binding; conditions: 3H darglitazone displacement
T1 sequence (P37231 1-505): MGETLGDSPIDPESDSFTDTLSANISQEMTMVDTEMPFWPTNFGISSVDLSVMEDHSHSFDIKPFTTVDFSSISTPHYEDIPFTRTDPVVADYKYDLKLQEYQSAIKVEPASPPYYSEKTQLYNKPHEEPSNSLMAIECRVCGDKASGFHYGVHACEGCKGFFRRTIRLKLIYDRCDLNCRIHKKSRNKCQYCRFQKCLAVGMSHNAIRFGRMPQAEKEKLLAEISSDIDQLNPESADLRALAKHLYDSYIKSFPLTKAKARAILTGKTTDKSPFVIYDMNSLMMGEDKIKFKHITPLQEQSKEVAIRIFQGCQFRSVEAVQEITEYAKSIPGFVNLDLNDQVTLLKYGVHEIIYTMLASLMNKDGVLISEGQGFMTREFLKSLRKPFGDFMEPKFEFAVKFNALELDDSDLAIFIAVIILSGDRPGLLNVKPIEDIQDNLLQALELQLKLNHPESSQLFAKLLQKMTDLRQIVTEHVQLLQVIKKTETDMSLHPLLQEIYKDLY
Text: (§1) Scintillatian Proximity Assay (SPA) Assays
(§2) In the SPA assay, 3H labeled darglitazone (for PPAR-γ) or GW2331 (for PPAR-α) is bound to the PPAR protein captured on SPA polylysine beads and generates radioactive count signal that can be detected by TopCounts (Packard). The PPAR-bound 3H labeled ligand can be displaced by an unlabeled compound. The Ki of the compound can be then determined by the extent of displacement at various compound concentrations. Reagents: • SPA polylysine beads, which can be purchased from Amersham Bioscience. • H labeled Darglitazone for PPAR-γ. • H labeled GW2331 for PPAR-α. • PPAR proteins. • Buffer—PBS, 10% glycerol, 14 mM beta-mercaptoethanol.

PPAR-α = target: T2, PPAR-α (Homo sapiens, UniProt Q07869); assay: Scintillation Proximity Assay (SPA), displacement of 3H labeled GW2331; type: binding; conditions: 3H GW2331 displacement
T2 sequence (Q07869 1-468): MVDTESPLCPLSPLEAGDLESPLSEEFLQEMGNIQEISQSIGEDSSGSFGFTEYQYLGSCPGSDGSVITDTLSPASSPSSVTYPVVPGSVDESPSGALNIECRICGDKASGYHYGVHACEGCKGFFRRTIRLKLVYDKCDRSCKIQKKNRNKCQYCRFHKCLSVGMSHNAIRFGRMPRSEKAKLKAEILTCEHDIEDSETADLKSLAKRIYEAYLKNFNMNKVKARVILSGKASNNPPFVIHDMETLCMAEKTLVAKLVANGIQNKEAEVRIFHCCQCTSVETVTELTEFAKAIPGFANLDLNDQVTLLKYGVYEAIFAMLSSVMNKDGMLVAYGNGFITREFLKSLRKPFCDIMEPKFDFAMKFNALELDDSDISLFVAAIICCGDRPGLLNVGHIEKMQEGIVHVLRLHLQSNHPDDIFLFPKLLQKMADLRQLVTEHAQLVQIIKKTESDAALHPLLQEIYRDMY
Text: as §1, §2

Structure (SMILES) | Ki (PPAR-γ; read-out: PPAR-gamma Ki) | Ki (PPAR-α; read-out: PPAR-alpha Ki) | Ki (PPAR-γ; PPAR-gamma Ki) | Ki (PPAR-α; PPAR-alpha Ki)
Cc1oc(-c2ccccc2)nc1CCOc1ccc2cc(CC3(C(=O)O)CCCO3)ccc2c1 (stereo not shown) [Example C-91] | 390 nM | 1800 nM | – | –
Cc1oc(-c2cccc(Cl)c2)nc1CCOc1ccc(CC2(C(=O)O)CCCO2)cc1 (stereo not shown) [Example C-86] | 5 nM | 13 nM | – | –
COC(C)(Cc1ccc(OCCc2nc(-c3cccc(F)c3)oc2C)nc1)C(=O)O [Example D-42] | 700 nM | 1000 nM | – | –
CCOC(Cc1ccc(OCCc2ccc(OC(F)(F)F)cc2)nc1)C(=O)O [Example D-20] | 480 nM | 840 nM | – | –
CCOC(Cc1ccc(OCCc2ccc(OS(=O)(=O)CC)cc2)nc1)C(=O)O [Example D-18] | 450 nM | 620 nM | – | –
O=C(O)C1(Oc2cccc(-c3cccc(OCc4cc(-c5ccccc5)no4)c3)c2)CCC1 [Example A-14] | 1300 nM | 150 nM | – | –
Cc1oc(-c2ccccc2)nc1COC(=O)NCc1ccc(OC(C)(C)C(=O)O)cc1 [Example B-08] | 480 nM | 3100 nM | – | –
CCOC(Cc1ccc(OCCc2ccc(OS(=O)(=O)c3ccccc3)cc2)nc1)C(=O)O [Example D-17] | 31 nM | 910 nM | – | –
CCC(Oc1cccc(CNC(=O)OCc2nc(-c3ccccc3)oc2C)c1)C(=O)O (stereo not shown) [Example B-14] | 2300 nM | 21 nM | – | –
Cc1oc(-c2cccc(Cl)c2)nc1CCOc1ccc(CC2(C(=O)O)CCC2)cc1 [Example C-31] | 26 nM | 93 nM | – | –
COC(C)(Cc1ccc(OCCN(C)c2nc3ccccc3o2)nc1)C(=O)O [Example D-34] | 9100 nM | 3200 nM | – | –
Cc1oc(-c2ccccc2)nc1COc1ccc2cc(CC3(C(=O)O)CCCO3)ccc2c1 (stereo not shown) [Example C-93] | 11 nM | 300 nM | – | –
Cc1oc(-c2ccccc2)nc1CCCOC(=O)NCc1cccc(OC2(C(=O)O)CCC2)c1 [Example B-16] | 1800 nM | 84 nM | – | –
COC(Cc1ccc(OCCc2ccc(Oc3ccccc3)cc2)nc1)C(=O)O [Example D-13] | 360 nM | 190 nM | – | –
COC(C)(Cc1ccc(OCCc2nc(-c3cccc(C)c3)oc2C)nc1)C(=O)O [Example D-36] | 230 nM | 730 nM | – | –
Cc1cccc(-c2nc(CCOc3ccc(CC4(C(=O)O)CCCO4)cc3)c(C)o2)c1 (stereo not shown) [Example C-89] | 40 nM | 30 nM | – | –
O=C(O)C1(Cc2ccc(OCCc3ccc(-c4ccc5c(c4)OCC5)cc3)cc2)CCC1 [Example C-12] | 1600 nM | 9400 nM | – | –
Cc1ccc(-c2nc(CCOc3ccc(CC4(C(=O)O)CCCO4)cc3)c(C)o2)cc1 (stereo not shown) [Example C-83] | 8 nM | 4 nM | – | –
Cc1oc(-c2ccccc2)nc1CCOc1ccc(-c2cccc(OC3(C(=O)O)CCC3)c2)cc1 [Example A-10] | 1500 nM | 4400 nM | – | –

Structure (SMILES) | Ki (PPAR-γ; read-out: PPAR-gamma Ki) | Ki (PPAR-α; read-out: PPAR-alpha Ki) | Ki (PPAR-γ; PPAR-gamma Ki) | Ki (PPAR-α; PPAR-alpha Ki)
CCOC(Cc1ccc(OCCc2nc(-c3ccc(Cl)cc3)oc2C)nc1)C(=O)O [Example D-15] | 350 nM | 220 nM | – | –
Cc1oc(-c2ccc(Cl)c(Cl)c2)nc1CCOc1ccc(CC2(C(=O)O)CCC2)cc1 [Example C-25] | 66 nM | 18 nM | – | –
Cc1oc(-c2ccc(C#N)cc2)nc1CCOc1ccc(CC2(C(=O)O)CCCO2)cn1 (stereo not shown) [Example C-61] | 310 nM | 240 nM | – | –
Cc1oc(-c2ccc(Cl)cc2)nc1CCOc1ccc(CC2(C(=O)O)CCCO2)nc1 (stereo not shown) [Example C-52] | 300 nM | 150 nM | – | –
Cc1oc(-c2ccc(C(N)=O)cc2)nc1CCOc1ccc(CC2(C(=O)O)CCC2)cc1 [Example C-23] | 190 nM | 2500 nM | – | –
Cc1oc(-c2ccccc2)nc1COC(=O)NCc1cccc(OC(C)(C)C(=O)O)c1 [Example B-06] | 370 nM | 130 nM | – | –
Cc1oc(-c2ccccc2)nc1CCOc1cnc(CC2(C(=O)O)CCCO2)cn1 (stereo not shown) [Example C-77] | – | 2900 nM | 150 nM | –
COc1cccc(-c2nc(CCOc3ccc(CC4(C(=O)O)CCCO4)cc3)c(C)o2)c1 (stereo not shown) [Example C-85] | 4 nM | 13 nM | – | –
COC(C)(Cc1ccc(OCCc2nc(-c3ccccc3)sc2C)nc1)C(=O)O [Example D-33] | 690 nM | 550 nM | – | –
Cc1sc(-c2ccccc2)nc1CCOc1ccc(CC2(C(=O)O)CCCO2)nc1 (stereo not shown) [Example C-51] | 180 nM | 2900 nM | – | –
CCOc1ccc(-c2nc(CCOc3ccc(CC(C)(OC)C(=O)O)cn3)c(C)o2)cc1 [Example D-37] | 530 nM | 4700 nM | – | –
Cc1cccc(-c2nc(CCOc3ccc(CC4(C(=O)O)CCCO4)nc3)c(C)o2)c1 (stereo not shown) [Example C-50] | 43 nM | 1100 nM | – | –
Cc1oc(-c2ccccc2)nc1CCNC(=O)OCc1cccc(OC(C)(C)C(=O)O)c1 [Example B-21] | 990 nM | 4000 nM | – | –
COC(C)(Cc1ccc(OCCc2nc(-c3ccc(C(F)(F)F)cc3)oc2C)nc1)C(=O)O [Example D-31] | 1000 nM | 88 nM | – | –
COc1ccc(-c2ccc(CCOc3ccc(CC4(C(=O)O)CCC4)cc3)cc2)cc1 [Example C-06, 1-{4-[2-(4′-methoxy-1,1′-biphenyl-4-yl)ethoxy]benzyl}cyclobutanecarboxylic acid] | 9500 nM | 41000 nM | – | –
CCS(=O)(=O)Oc1ccc(CCOc2ccc(CC(OC)C(=O)O)cn2)cc1 [Example D-11] | 6200 nM | 5100 nM | – | –
Cc1oc(-c2cccc(C(F)(F)F)c2)nc1CCOc1ccc(CC2(C(=O)O)CCCO2)cc1 (stereo not shown) [Example C-87] | 12 nM | 25 nM | – | –
CN(CCOc1ccc(CC2(C(=O)O)CCCO2)cn1)c1nc2ccccc2o1 (stereo not shown) [Example C-69] | 1100 nM | 2500 nM | – | –
Cc1oc(-c2cccc(C(F)(F)F)c2)nc1CCOc1ccc(CC2(C(=O)O)CCC2)cc1 [Example C-30] | 33 nM | 110 nM | – | –

Structure (SMILES) | Ki (PPAR-γ; read-out: PPAR-gamma Ki) | Ki (PPAR-α; read-out: PPAR-alpha Ki) | Ki (PPAR-γ; PPAR-gamma Ki) | Ki (PPAR-α; PPAR-alpha Ki)
Cc1oc(-c2ccc(Cl)cc2)nc1CCOc1ccc(CC2(C(=O)O)CCC2)cc1 [Example C-27] | 26 nM | 15 nM | – | –
Cc1oc(-c2cccc(N(C)C)c2)nc1CCOc1ccc(CC2(C(=O)O)CCCO2)cc1 (stereo not shown) [Example C-79] | 7 nM | 15 nM | – | –
CCOC(Cc1ccc(OCCc2ccc(OS(C)(=O)=O)cc2)nc1)C(=O)O [Example D-19] | 1700 nM | 6400 nM | – | –
Cc1oc(-c2cccc(N(C)C)c2)nc1CCOc1ccc(CC2(C(=O)O)CCC2)cc1 [Example C-21] | 53 nM | 66 nM | – | –
COC(Cc1ccc(OCCc2nc(-c3cccc(C)c3)oc2C)nc1)C(=O)O [Example D-03] | 11 nM | 300 nM | – | –
Cc1oc(-c2ccc(C(N)=O)cc2)nc1CCOc1ccc(CC2(C(=O)O)CCCO2)cc1 (stereo not shown) [Example C-81] | 15 nM | 750 nM | – | –
Cc1oc(-c2ccccc2)nc1CCCOC(=O)NCc1ccc(OC(C)(C)C(=O)O)cc1 [Example B-07] | 650 nM | 12000 nM | – | –
COc1ccc(-c2ccc(CCOc3ccc(CC4(C(=O)O)CCC4)cc3)cc2)cn1 [Example C-10] | 2100 nM | 19000 nM | – | –
CCOC(Cc1cccc(CNC(=O)OCc2nc(-c3ccccc3)oc2C)c1)C(=O)O (stereo not shown) [Example B-22] | 150 nM | 460 nM | – | –
COC(Cc1ccc(OCCc2nc(-c3ccc(C#N)cc3)oc2C)nc1)C(=O)O [Example D-02] | 460 nM | 290 nM | – | –
O=C(O)C1(Cc2ccc(OCCc3ccc(-c4ccc(F)cc4)cc3)cc2)CCC1 [Example C-07] | 11000 nM | 22000 nM | – | –
Cc1onc(-c2ccccc2)c1COc1cccc(-c2cccc(OC3(C(=O)O)CCC3)c2)c1 [Example A-20] | 180 nM | 140 nM | – | –
Cc1ccc(N2CCC(CCOc3cccc(-c4cccc(OC(C)(C)C(=O)O)c4)c3)CC2)nn1 [Example A-03, 2-Methyl-2-[(3′-{2-[1-(6-methylpyridazin-3-yl)piperidin-4-yl]ethoxy}1,1′-biphenyl-3-yl)oxy]propanoic acid] | 10000 nM | 19000 nM | – | –
Cc1oc(-c2ccc(C#N)cc2)nc1CCOc1ccc(CC2(C(=O)O)CCCO2)cc1 (stereo not shown) [Example C-80] | 62 nM | 53 nM | – | –
CC(C)(Oc1cccc(CNC(=O)OCCc2cccc(C(F)(F)F)c2)c1)C(=O)O [Example B-03] | 31000 nM | 9000 nM | – | –
COc1cccc(-c2nc(CCOc3ccc(CC4(C(=O)O)CCCO4)nc3)c(C)o2)c1 (stereo not shown) [Example C-54] | – | – | 20 nM | 1200 nM
CC(C)(Oc1cccc(COC(=O)NCCc2ccc(C(F)(F)F)cc2)c1)C(=O)O [Example B-04] | 1500 nM | 48000 nM | – | –
Cc1oc(-c2ccc(C(F)(F)F)c(F)c2)nc1CCOc1ccc(CC2(C(=O)O)CCC2)cc1 [Example C-24] | 83 nM | 22 nM | – | –
